The source made the active and inactive calls. No cut-off for these calls is given here.
What was measured:
HUVEC = assay: Antiangiogenic activity in HUVEC cells assessed as inhibition of VEGF-induced cell proliferation at 20 uM incubated for 48 hrs by MTT assay relative to control; type: functional; settings: Homo sapiens, values are per cent of control
MDA-MB-468 = assay: Cytotoxicity against human MDA-MB-468 cells assessed as inhibition of cell growth incubated for 72 hrs by MTS assay; type: functional, cell-based; settings: MDA-MB-468, 72 h
[1] = Selectivity index, ratio of IC50 for cytotoxicity against HEK293 cells to IC50 for cytotoxicity against human MDA-MB-468 cells; type: toxicity, cell-based; settings: HEK293 cells versus MDA-MB-468 cells, read-out: Ratio IC50
[2] = Cytotoxicity against HEK293 cells assessed as inhibition of cell growth incubated for 72 hrs by MTS assay; type: toxicity, cell-based; settings: human
Carbonic anhydrase 12 = Carbonic anhydrase 12 (Homo sapiens, UniProt O43570); assay: Inhibition of recombinant human carbonic anhydrase 12 assessed as inhibition constant incubated for 1 hr prior to testing by phenol red based stopped-flow CO2 hydration assay
Chain of Carbonic anhydrase 12 (O43570 whole entry): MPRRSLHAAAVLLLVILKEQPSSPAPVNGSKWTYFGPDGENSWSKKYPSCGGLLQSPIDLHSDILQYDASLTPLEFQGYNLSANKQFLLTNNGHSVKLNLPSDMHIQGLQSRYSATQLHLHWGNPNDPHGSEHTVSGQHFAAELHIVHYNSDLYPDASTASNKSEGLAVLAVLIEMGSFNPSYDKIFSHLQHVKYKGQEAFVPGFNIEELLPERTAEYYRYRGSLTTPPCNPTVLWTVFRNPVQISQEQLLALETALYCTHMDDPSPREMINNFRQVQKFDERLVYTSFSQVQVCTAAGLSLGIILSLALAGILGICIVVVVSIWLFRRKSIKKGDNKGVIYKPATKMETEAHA

Carbonic anhydrase 9 = Carbonic anhydrase 9 (Homo sapiens, UniProt Q16790); assay: Inhibition of recombinant human carbonic anhydrase 9 assessed as inhibition constant incubated for 1 hr prior to testing by phenol red based stopped-flow CO2 hydration assay
Carbonic anhydrase 2 = Carbonic anhydrase 2 (Homo sapiens, UniProt P00918); assay: Inhibition of recombinant human carbonic anhydrase 2 assessed as inhibition constant incubated for 1 hr prior to testing by phenol red based stopped-flow CO2 hydration assay
Carbonic anhydrase 1 = Carbonic anhydrase 1 (Homo sapiens, UniProt P00915); assay: Inhibition of recombinant human carbonic anhydrase 1 assessed as inhibition constant incubated for 1 hr prior to testing by phenol red based stopped-flow CO2 hydration assay
Chain of Carbonic anhydrase 1 (P00915 whole entry): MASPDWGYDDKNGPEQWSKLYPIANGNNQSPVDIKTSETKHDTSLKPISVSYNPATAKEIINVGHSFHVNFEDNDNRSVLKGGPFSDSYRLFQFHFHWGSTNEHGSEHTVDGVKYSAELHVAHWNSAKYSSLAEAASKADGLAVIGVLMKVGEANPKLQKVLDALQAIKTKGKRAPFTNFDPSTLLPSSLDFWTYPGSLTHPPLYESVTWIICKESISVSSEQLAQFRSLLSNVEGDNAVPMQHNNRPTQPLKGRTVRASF

[3] = target: T1, Vascular endothelial growth factor receptor 2 (Homo sapiens, UniProt P35968); assay: Inhibition of VEGFR2 phosphorylation in VEGF-induced HUVEC cells assessed as reduction in pVEGFR2 level at 20 uM incubated for 5 mins by Western blot analysis; type: cell-based
T1 sequence (P35968 whole entry): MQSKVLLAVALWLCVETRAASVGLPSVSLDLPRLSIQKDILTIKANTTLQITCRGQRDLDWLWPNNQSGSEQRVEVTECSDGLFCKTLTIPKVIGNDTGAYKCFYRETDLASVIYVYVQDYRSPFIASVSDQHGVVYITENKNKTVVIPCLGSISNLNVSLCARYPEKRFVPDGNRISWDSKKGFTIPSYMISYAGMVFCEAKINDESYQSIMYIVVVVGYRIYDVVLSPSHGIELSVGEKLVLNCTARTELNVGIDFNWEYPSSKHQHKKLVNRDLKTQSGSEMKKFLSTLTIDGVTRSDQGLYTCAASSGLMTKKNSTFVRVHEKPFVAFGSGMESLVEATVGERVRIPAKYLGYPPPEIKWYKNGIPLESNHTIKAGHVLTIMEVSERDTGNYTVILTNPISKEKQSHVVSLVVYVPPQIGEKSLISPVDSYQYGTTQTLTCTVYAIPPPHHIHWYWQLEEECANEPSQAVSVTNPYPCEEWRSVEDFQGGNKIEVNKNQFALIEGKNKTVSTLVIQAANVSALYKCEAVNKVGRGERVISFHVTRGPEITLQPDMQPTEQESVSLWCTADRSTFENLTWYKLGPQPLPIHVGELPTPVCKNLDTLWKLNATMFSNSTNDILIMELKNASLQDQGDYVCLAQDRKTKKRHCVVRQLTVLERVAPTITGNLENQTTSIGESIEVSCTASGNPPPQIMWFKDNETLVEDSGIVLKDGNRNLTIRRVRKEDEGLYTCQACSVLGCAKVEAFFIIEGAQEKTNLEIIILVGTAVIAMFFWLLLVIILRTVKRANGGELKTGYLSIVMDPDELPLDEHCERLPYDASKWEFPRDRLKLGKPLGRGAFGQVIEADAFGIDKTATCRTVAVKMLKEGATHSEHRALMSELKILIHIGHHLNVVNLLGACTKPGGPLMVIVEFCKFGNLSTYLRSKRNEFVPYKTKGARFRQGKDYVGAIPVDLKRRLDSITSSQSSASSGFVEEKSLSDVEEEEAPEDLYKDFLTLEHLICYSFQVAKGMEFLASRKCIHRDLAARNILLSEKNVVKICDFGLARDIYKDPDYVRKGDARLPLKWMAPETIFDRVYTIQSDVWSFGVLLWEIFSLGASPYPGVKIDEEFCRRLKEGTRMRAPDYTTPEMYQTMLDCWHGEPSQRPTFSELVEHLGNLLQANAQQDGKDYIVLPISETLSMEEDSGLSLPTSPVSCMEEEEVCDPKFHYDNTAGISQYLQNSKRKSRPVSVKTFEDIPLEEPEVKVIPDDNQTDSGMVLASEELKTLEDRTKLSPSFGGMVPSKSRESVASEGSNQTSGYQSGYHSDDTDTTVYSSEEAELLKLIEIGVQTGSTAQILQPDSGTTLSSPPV

[4] = target: T1, Vascular endothelial growth factor receptor 2; assay: Inhibition of VEGFR2 (unknown origin) using poly[Glu:Tyr] (4:1) as substrate at 20 uM incubated for 45 mins by kinase-glo max reagent based luminescence analysis relative to control
[5] = target: Mast/stem cell growth factor receptor Kit (Homo sapiens) (UniProt P10721); assay: Inhibition of c-KIT (unknown origin) assessed as residual activity at 10 uM incubated for 1 hr by KinomeScan analysis relative to control
Chain of Mast/stem cell growth factor receptor Kit (Homo sapiens) (P10721 whole entry): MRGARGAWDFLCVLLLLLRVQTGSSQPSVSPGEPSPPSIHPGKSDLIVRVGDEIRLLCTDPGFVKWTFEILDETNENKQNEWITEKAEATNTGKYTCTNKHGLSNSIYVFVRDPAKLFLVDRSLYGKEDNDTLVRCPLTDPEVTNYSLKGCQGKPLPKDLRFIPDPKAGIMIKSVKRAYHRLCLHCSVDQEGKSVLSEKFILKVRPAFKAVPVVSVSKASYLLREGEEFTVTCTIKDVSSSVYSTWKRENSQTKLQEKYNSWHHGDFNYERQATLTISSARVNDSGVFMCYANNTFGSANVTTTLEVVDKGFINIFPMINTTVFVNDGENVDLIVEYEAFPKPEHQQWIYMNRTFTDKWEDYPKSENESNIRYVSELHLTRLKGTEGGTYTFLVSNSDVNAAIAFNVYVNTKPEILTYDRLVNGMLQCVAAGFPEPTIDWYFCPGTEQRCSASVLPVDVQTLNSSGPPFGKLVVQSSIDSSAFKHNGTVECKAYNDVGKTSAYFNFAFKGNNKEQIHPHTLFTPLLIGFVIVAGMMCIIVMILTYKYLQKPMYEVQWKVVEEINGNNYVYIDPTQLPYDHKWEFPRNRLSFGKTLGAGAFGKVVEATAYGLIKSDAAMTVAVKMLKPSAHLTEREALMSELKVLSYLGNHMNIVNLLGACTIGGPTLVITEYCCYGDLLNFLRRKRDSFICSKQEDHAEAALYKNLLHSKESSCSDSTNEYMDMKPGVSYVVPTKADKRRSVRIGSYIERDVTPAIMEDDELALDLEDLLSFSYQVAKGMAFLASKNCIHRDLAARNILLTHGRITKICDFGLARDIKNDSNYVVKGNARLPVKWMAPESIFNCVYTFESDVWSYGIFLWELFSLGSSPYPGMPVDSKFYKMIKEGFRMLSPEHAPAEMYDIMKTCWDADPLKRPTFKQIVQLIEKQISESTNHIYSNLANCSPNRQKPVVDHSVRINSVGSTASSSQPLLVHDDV

[6] = target: Activated CDC42 kinase 1 (Homo sapiens) (UniProt Q07912); assay: Inhibition of TNK2 (unknown origin) assessed as residual activity at 10 uM incubated for 1 hr by KinomeScan analysis relative to control
Chain of Activated CDC42 kinase 1 (Homo sapiens) (Q07912 whole entry, looked up): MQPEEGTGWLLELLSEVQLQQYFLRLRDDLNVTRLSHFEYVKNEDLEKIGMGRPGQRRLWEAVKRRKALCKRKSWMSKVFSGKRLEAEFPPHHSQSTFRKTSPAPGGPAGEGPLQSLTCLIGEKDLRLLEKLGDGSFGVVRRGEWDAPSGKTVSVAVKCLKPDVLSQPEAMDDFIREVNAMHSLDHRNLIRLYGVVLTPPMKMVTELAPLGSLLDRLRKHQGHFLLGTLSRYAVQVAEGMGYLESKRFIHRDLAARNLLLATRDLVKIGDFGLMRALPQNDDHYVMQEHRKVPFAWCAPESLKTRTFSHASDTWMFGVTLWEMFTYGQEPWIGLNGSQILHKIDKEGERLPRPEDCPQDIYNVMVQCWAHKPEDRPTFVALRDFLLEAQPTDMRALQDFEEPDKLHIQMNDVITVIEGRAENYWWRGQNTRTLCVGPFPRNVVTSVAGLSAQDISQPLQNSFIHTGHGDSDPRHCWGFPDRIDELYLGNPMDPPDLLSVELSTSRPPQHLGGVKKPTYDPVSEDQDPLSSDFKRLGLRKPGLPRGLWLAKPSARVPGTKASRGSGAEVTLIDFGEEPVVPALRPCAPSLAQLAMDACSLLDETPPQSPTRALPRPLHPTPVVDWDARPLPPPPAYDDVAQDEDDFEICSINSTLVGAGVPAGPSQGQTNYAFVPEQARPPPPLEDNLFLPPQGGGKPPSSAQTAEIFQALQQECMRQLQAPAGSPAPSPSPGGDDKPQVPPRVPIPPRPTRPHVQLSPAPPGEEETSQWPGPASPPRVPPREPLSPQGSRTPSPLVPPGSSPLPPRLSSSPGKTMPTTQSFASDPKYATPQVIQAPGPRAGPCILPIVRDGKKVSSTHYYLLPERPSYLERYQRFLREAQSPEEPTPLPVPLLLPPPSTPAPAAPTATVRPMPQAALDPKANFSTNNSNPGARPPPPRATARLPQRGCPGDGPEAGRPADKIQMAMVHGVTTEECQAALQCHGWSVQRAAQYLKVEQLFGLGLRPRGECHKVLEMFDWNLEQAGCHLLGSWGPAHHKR

[7] = target: T2, Myosin light chain kinase family member 4 (Homo sapiens) (UniProt Q86YV6); assay: Inhibition of MYLK4 (unknown origin) assessed as residual activity at 10 uM incubated for 1 hr by KinomeScan analysis relative to control
T2 sequence (whole entry): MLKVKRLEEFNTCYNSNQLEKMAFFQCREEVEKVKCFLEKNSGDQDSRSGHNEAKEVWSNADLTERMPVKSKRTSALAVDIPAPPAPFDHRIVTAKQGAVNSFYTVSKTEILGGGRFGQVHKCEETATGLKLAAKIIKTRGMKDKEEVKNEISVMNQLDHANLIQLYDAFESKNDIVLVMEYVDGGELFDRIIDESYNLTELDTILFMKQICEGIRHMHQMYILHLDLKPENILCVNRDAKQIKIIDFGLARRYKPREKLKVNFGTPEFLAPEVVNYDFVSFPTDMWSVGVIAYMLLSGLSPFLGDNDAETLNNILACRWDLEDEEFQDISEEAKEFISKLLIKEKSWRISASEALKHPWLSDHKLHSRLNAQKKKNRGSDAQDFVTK

[8] = target: T3, Serine/threonine-protein kinase D2 (Homo sapiens) (UniProt Q9BZL6); assay: Inhibition of PRKD2 (unknown origin) assessed as residual activity at 10 uM incubated for 1 hr by KinomeScan analysis relative to control
T3 sequence (whole entry): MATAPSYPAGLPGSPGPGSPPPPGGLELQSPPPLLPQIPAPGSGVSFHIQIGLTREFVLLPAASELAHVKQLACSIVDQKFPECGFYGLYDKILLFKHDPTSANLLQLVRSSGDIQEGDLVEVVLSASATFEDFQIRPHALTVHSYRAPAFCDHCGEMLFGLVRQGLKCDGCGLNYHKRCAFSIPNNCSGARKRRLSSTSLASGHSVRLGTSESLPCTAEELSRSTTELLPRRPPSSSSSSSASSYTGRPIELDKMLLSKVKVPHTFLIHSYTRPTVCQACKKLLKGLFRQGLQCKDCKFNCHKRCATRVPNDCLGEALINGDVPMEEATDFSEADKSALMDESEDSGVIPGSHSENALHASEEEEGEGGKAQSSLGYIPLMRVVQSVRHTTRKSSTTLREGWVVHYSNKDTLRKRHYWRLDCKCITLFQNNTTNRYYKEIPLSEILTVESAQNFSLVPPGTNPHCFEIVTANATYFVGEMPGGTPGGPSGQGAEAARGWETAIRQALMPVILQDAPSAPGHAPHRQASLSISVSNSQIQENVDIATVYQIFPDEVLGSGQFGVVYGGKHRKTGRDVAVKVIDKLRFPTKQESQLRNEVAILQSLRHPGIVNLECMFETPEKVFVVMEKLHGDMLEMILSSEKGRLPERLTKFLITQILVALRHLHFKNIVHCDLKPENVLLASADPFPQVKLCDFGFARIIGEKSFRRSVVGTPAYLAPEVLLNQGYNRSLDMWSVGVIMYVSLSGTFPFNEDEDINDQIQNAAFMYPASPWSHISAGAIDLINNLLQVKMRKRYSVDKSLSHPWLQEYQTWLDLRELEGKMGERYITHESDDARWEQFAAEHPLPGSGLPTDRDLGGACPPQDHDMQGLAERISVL

[9] = target: T1, Vascular endothelial growth factor receptor 2; assay: Inhibition of VEGFR2 (unknown origin) using poly[Glu:Tyr] (4:1) as substrate incubated for 45 mins by kinase-glo max reagent based luminescence analysis

Row | Structure (SMILES) | growth, % of control at 20 µM (HUVEC) [%] | IC50 (MDA-MB-468) [µM] | also measured
1 | O=S1(=O)N=C(NCCc2c[nH]c3ccccc23)Nc2cc(Cl)ccc21 | 34.1 |  | 
2 | Cc1ccc(CNC2=NS(=O)(=O)c3ccc(Cl)cc3N2)cc1 | 146 |  | 
3 | O=S1(=O)N=C(NCCCc2ccccc2)Nc2cc(Cl)ccc21 | 175 | 91.9 | selectivity ratio [1]: 1.2; IC50 at 72 h [2]: 111 µM
4 | O=S1(=O)N=C(NCc2ccncc2)Nc2ccc(Cl)cc21 | 66.8 |  | 
5 | COc1ccc(CCNC2=NS(=O)(=O)c3cc(F)ccc3N2)cc1 |  |  | Ki (Carbonic anhydrase 12): > 100 µM; Ki (Carbonic anhydrase 9): > 100 µM; Ki (Carbonic anhydrase 2): > 100 µM; Ki (Carbonic anhydrase 1): > 100 µM
6 | CC(C)C(C)NC1=NS(=O)(=O)c2cc(F)ccc2N1 (stereo not given) | 76.4 |  | 
7 | Cc1ccccc1CNC1=NS(=O)(=O)c2cc(Cl)ccc2N1 | 117 |  | 
8 | CCNC1=NS(=O)(=O)c2ccccc2N1 | 88.4 |  | 
9 | Cc1ccccc1CNC1=NS(=O)(=O)c2ccc(Cl)cc2N1 | 112 |  | 
10 | O=S1(=O)N=C(NCCc2ccccc2)Nc2cc(Cl)ccc21 | 197 |  | 
11 | Cc1cccc(CNC2=NS(=O)(=O)c3ccc(Cl)cc3N2)c1 | 125 |  | 
12 | O=S1(=O)N=C(NCCCCc2ccccc2)Nc2ccc(Cl)cc21 | 116 |  | IC50 at 72 h [2]: 23.4 µM
13 | O=S1(=O)N=C(NCCCc2ccccc2)Nc2ccc(Br)cc21 | 28.6 |  | 
14 | O=S1(=O)N=C(NCc2ccc(OC(F)(F)F)cc2)Nc2ccc(Br)cc21 | 127 | 39.1 | inhibition [3]: Active; Ki (Carbonic anhydrase 12): > 100 µM; Ki (Carbonic anhydrase 9): > 100 µM; Ki (Carbonic anhydrase 2): > 100 µM; Ki (Carbonic anhydrase 1): > 100 µM
15 | O=S1(=O)N=C(NC2CCCC2)Nc2ccc(Cl)cc21 |  | 77 | inhibition [3]: Active
16 | O=S1(=O)N=C(NCCc2ccccc2)Nc2ccc(Cl)cc21 | 81.7 |  | 
17 | O=S1(=O)N=C(NCc2ccc(F)cc2F)Nc2ccc(Br)cc21 | 127 |  | 
18 | O=S1(=O)N=C(NCCc2c[nH]c3ccccc23)Nc2ccc(F)cc21 | 41.8 |  | 
19 | O=S1(=O)N=C(NCc2ccc(OC(F)(F)F)cc2)Nc2cc(Cl)ccc21 | 199 | 48 | inhibition [4]: 33%; Activity [5]: 32%; selectivity ratio [1]: 1.6; inhibition [3]: Active; Activity [6]: 0.1%; IC50 at 72 h [2]: 77.2 µM; Activity [7]: 33%; Activity [8]: 8%; IC50 [9]: 140 µM
20 | O=S1(=O)N=C(NCc2ccc(C(F)(F)F)cc2)Nc2cc(Cl)ccc21 | 8.6 |  | 
21 | O=S1(=O)N=C(NCc2ccccc2OC(F)(F)F)Nc2cc(Cl)ccc21 | 124 | 14.9 | selectivity ratio [1]: 2; IC50 at 72 h [2]: 30.5 µM
22 | Cc1ccc(CNC2=NS(=O)(=O)c3cc(Cl)ccc3N2)cc1 | 119 | 43.1 | 
23 | COc1cccc(CNC2=NS(=O)(=O)c3ccc(Cl)cc3N2)c1 | 129 |  | 
24 | O=S1(=O)N=C(NCc2ccc(F)cc2F)Nc2cc(Cl)ccc21 | 172 | 84.6 | selectivity ratio [1]: 1.5; IC50 at 72 h [2]: 129 µM
25 | O=S1(=O)N=C(NC2CCCC2)Nc2cc(Cl)ccc21 | 174 | 148 | 
26 | CSC1=NS(=O)(=O)c2ccc(Cl)cc2N1 | 20.9 |  | 

Row | Structure (SMILES) | growth, % of control at 20 µM (HUVEC) [%] | IC50 (MDA-MB-468) [µM] | also measured
27 | O=S1(=O)N=C(NCCc2ccccc2)Nc2ccc(Br)cc21 | 52.7 |  | 
28 | COc1cccc(CNC2=NS(=O)(=O)c3cc(Cl)ccc3N2)c1 | 95.5 | > 100 | inhibition [3]: Active
29 | O=S1(=O)N=C(NCc2ccc(F)cc2F)Nc2ccc(Cl)cc21 | 133 | 45.5 | selectivity ratio [1]: 1.3; IC50 at 72 h [2]: 58.9 µM
30 | CC(NC1=NS(=O)(=O)c2cc(Br)ccc2N1)c1ccccc1 (stereo not given) | 104 |  | 
31 | O=S1(=O)N=C(NCCCc2ccccc2)Nc2ccc(Cl)cc21 | 91.6 | 56.6 | selectivity ratio [1]: 0.5; IC50 at 72 h [2]: 30.9 µM
32 | O=S1(=O)N=C(NCc2ccccc2)Nc2cc(Cl)ccc21 | 200 | 64.2 | selectivity ratio [1]: 1.5; IC50 at 72 h [2]: 102 µM
33 | COc1ccc(CNC2=NS(=O)(=O)c3ccc(Cl)cc3N2)cc1 | 132 |  | 
34 | CCCCCC(=O)c1c(O)nc(OC)c(OC)c1O |  | 6.71 | selectivity ratio [1]: 3.9; IC50 at 72 h [2]: 25.9 µM
35 | O=S1(=O)N=C(NCc2ccc(OC(F)(F)F)cc2)Nc2ccccc21 | 88.6 | 71 | 
36 | COc1cccc(CCNC2=NS(=O)(=O)c3ccc(Cl)cc3N2)c1 | 103 |  | 
37 | Cc1cccc(CNC2=NS(=O)(=O)c3cc(Cl)ccc3N2)c1 | 145 | 117 | inhibition [3]: Active
38 | CC(NC1=NS(=O)(=O)c2ccc(Cl)cc2N1)c1ccccc1 (stereo not given) | 40.5 | 91.1 | 
39 | O=S1(=O)N=C(NCc2ccc(OC(F)(F)F)cc2)Nc2ccc(Cl)cc21 | 120 | 43.4 | 
40 | O=S1(=O)N=C(NCc2ccccc2)Nc2ccc(Cl)cc21 | 122 |  | 
41 | COc1ccccc1CNC1=NS(=O)(=O)c2ccc(Cl)cc2N1 | 83.9 |  | 
42 | O=S1(=O)N=C(NCCCc2ccccc2)Nc2ccccc21 | 53.6 |  | 
43 | CSC1=NS(=O)(=O)c2cc(F)ccc2N1C | 70.1 |  | 
44 | COc1ccc(CNC2=NS(=O)(=O)c3cc(Cl)ccc3N2)cc1 | 90.7 | 62.9 | Ki (Carbonic anhydrase 12): > 100 µM; Ki (Carbonic anhydrase 9): > 100 µM; Ki (Carbonic anhydrase 2): > 100 µM; Ki (Carbonic anhydrase 1): > 100 µM
45 | CC(NC1=NS(=O)(=O)c2cc(Cl)ccc2N1)c1ccccc1 (stereo not given) | 53.7 |  | 
46 | O=S1(=O)NC(=S)Nc2ccc(F)cc21 | 50.1 |  | 
47 | NS(=O)(=O)c1ccc(CCNC2=NS(=O)(=O)c3ccc(Cl)cc3N2)cc1 |  |  | Ki (Carbonic anhydrase 12): 0.0038 µM; Ki (Carbonic anhydrase 2): 0.0088 µM; Ki (Carbonic anhydrase 1): 0.0501 µM
48 | COc1ccccc1CNC1=NS(=O)(=O)c2cc(F)ccc2N1 | 29.4 |  | 
49 | CC1=Nc2ccc(Cl)cc2S(=O)(=O)N1 [DIAZOXIDE] | 15.2 |  | 
50 | O=S1(=O)N=C(NCc2ccc(F)cc2)Nc2ccc(Cl)cc21 | 70.4 |  | 
51 | CC(NC1=NS(=O)(=O)c2ccccc2N1)c1ccccc1 (stereo not given) | 25.2 | 58.5 | inhibition [3]: Active
